The record followed here is ChEMBL document CHEMBL1146300, “High affinity Grb2-SH3 domain ligand incorporating Cbeta-substituted prolines in a Sos-derived decapeptide” (Bioorg Med Chem, 2007).

Active and inactive are the calls of the source. The rule behind the calls is not given here. Numbered stars: 1 amine (or outer) side, 2 acyl side, 3 side chain; on linkers, the order of the positions; unused ones are H or OH. Square brackets hold non-standard residues; d marks the D form. Peptide text beside a SMILES is read from it. X4 = O=C([C@@H]1C(CS(=O)(=O)c2ccccc2)CCN1[*:1])[*:2]; X3 = C[S+]([O-])CC1CCN([*:1])[C@@H]1C(=O)[*:2]; X2 = O=C(O)CC1CCN([*:1])[C@@H]1C(=O)[*:2]; X6 = CC(C)C1CCN([*:1])[C@@H]1C(=O)[*:2]; X5 = O=C([C@@H]1C(CO)CCN1[*:1])[*:2]; X1 = CC1CCN([*:1])[C@@H]1C(=O)[*:2] Where only a bound is given, the exact number is not on record here.

A word on the Kd: it is the free concentration of one partner at which half of the binding sites on the other are occupied at equilibrium, for simple one-to-one binding.

In the experiment the target is Growth factor receptor-bound protein 2 (Homo sapiens, UniProt P62993). Nature of the experiment: Binding affinity to recombinant Grb2-SH3 domain by fluorescence spectroscopy.
As for H-VPPPPPPRRR-OH, the result was inactive.
For `CC(=O)N[C@H](C(=O)N1CCC[C@H]1C(=O)N1CCC[C@H]1C(=O)N1CCC[C@H]1C(=O)N1CCC(C)[C@H]1C(=O)N1CCC[C@H]1C(=O)N1CCC[C@H]1C(=O)N[C@@H](CCCNC(=N)N)C(=O)N[C@@H](CCCNC(=N)N)C(=O)N[C@@H](CCCNC(=N)N)C(=O)N[C@H](C(=O)N1CCC[C@H]1C(=O)N1CCC[C@H]1C(=O)N1CCC[C@H]1C(=O)N1CCC(C)[C@H]1C(=O)N1CCC[C@H]1C(=O)N1CCC[C@H]1C(=O)N[C@@H](CCCNC(=N)N)C(=O)N[C@@H](CCCNC(=N)N)C(=O)N[C@@H](CCCNC(=N)N)C(=O)N[C@@H](CCCCN)C(N)=O)C(C)C)C(C)C` (stereo partly drawn) (Ac-VPPP[X1]PPRRRVPPP[X1]PPRRRK-NH2), the Kd was under 0.52 µM.
For `CC(C)[C@H](N)C(=O)N1CCC[C@H]1C(=O)N1CCC[C@H]1C(=O)N1CCC[C@H]1C(=O)N1CCC(C[S+](C)[O-])[C@H]1C(=O)N1CCC[C@H]1C(=O)N1CCC[C@H]1C(=O)N[C@@H](CCCNC(=N)N)C(=O)N[C@@H](CCCNC(=N)N)C(=O)N[C@@H](CCCNC(=N)N)C(=O)O` (stereo partly drawn) (H-VPPP[X3]PPRRR-OH), the outcome was inactive.
Same read-out and setting: to `CC(C)[C@H](N)C(=O)N1CCC[C@H]1C(=O)N1CCC[C@H]1C(=O)N1CCC[C@H]1C(=O)N1CCC(CS(=O)(=O)c2ccccc2)[C@H]1C(=O)N1CCC[C@H]1C(=O)N1CCC[C@H]1C(=O)N[C@@H](CCCNC(=N)N)C(=O)N[C@@H](CCCNC(=N)N)C(=O)N[C@@H](CCCNC(=N)N)C(=O)O` (stereo partly drawn) (H-VPPP[X4]PPRRR-OH) belongs “inactive”.
On to `CC(C)[C@H](N)C(=O)N1CCC[C@H]1C(=O)N1CCC[C@H]1C(=O)N1CCC[C@H]1C(=O)N1CCC(C)[C@H]1C(=O)N1CCC[C@H]1C(=O)N1CCC[C@H]1C(=O)N[C@@H](CCCN=C(N)N)C(=O)N[C@@H](CCCN=C(N)N)C(=O)N[C@@H](CCCN=C(N)N)C(=O)O` (stereo partly drawn) (H-VPPP[X1]PPRRR-OH), for which the Kd came to 11.6 µM.
Turning to `CC(C)[C@H](N)C(=O)N1CCC[C@H]1C(=O)N1CCC[C@H]1C(=O)N1CCC[C@H]1C(=O)N1CCC(CC(=O)O)[C@H]1C(=O)N1CCC[C@H]1C(=O)N1CCC[C@H]1C(=O)N[C@@H](CCCNC(=N)N)C(=O)N[C@@H](CCCNC(=N)N)C(=O)N[C@@H](CCCNC(=N)N)C(=O)O` (stereo partly drawn) (H-VPPP[X2]PPRRR-OH), the result was inactive.
Same read-out and setting: to `CC(C)C1CCN(C(=O)[C@@H]2CCCN2C(=O)[C@@H]2CCCN2C(=O)[C@@H]2CCCN2C(=O)[C@@H](N)C(C)C)[C@@H]1C(=O)N1CCC[C@H]1C(=O)N1CCC[C@H]1C(=O)N[C@@H](CCCNC(=N)N)C(=O)N[C@@H](CCCNC(=N)N)C(=O)N[C@@H](CCCNC(=N)N)C(=O)O` (stereo partly drawn) (H-VPPP[X6]PPRRR-OH) belongs “inactive”; to `CC(C)[C@H](N)C(=O)N1CCC[C@H]1C(=O)N1CCC[C@H]1C(=O)N1CCC[C@H]1C(=O)N1CCC(CO)[C@H]1C(=O)N1CCC[C@H]1C(=O)N1CCC[C@H]1C(=O)N[C@@H](CCCNC(=N)N)C(=O)N[C@@H](CCCNC(=N)N)C(=O)N[C@@H](CCCNC(=N)N)C(=O)O` (stereo partly drawn) (H-VPPP[X5]PPRRR-OH), “inactive”.
